We go through two molecules from patent US20240391892A1, “A SMALL MOLECULE COMPOUND AND ITS USE AND PREPARATION METHOD” (SHANGHAI COACHCHEM TECHNOLOGY CO., LTD, priority 2022, published 2024).

Values joined by “and” are separate entries in the source; they are usually repeats but may differ in a detail not shown here. Equal values may be shown once.

Data set [1] in a line: In vitro DPPH free radical scavenging test. Format: biochemical. Details: DPPH Free Radical Scavenging Rate (%v/v): unit not given here. The settings on record: for DPPH Free Radical Scavenging Rate (%v/v): mean ± SD; for DPPH Free Radical Scavenging Rate (%): replicate wells. The text has this: The DPPH radical scavenging assay is an in vitro method used to evaluate antioxidant activity. DPPH is a stable free radical in organic solvents and appears purple in methanol or ethanol, with maximum absorption at a wavelength of 517 nm. The DPPH assay is based on the ability of an antioxidant to donate an electron to the DPPH radical, converting its purple color to yellow. The degree of absorbance change at 517 nm corresponds to the extent of the free radical scavenging activity, meaning the stronger the scavenging ability of the antioxidant, the lower the absorbance.
Using ascorbic acid (VC) as a system reference, dilute it with PBS to obtain five concentrations: 12.5, 25, 50, 100, and 200 μg/mL. Perform the test and calculations according to the procedure outlined in 3.3.2. Plot the reference curve with the concentration of the reference substance on the x-axis and the DPPH free radical scavenging rate on the y-axis.
Prepare the samples into the respective concentrations of test solutions. Prepare the reaction system by adding the specified amount of each reagent mentioned in Table 1, mix thoroughly. For each concentration, set up three replicate wells and one blank control well.
The reaction system is placed at room temperature and allowed to react in the dark for 30 minutes. After the reaction is complete, the absorbance (OD value) is measured at 515 nm. The formula to calculate the scavenging rate of the sample against DPPH free radicals is as follows:
[formula] [formula] • Where: • C1=Absorbance value of the blank with DPPH • C2=Absorbance value of the blank without DPPH • T1=Absorbance value of the sample with DPPH • T2=Absorbance value of the sample without DPPH
In general terms: Loss of DPPH colour is used to gauge radical scavenging.

The subject of another data set is HaCat cells. Description: Intracellular ROS scavenging test in UVB-irradiated HaCat cells. The format is cell-based, human. The following applies: UVB 20 mJ/cm2, 24 hours incubation, vs UVB control, p<0.001. As for the experimental part:
Among these factors, UV radiation stands as the most significant contributor. Skin exposed to UV radiation generates an excess of reactive oxygen species (ROS) within cells, triggering the expression of genes related to aging, instigating an inflammatory cascade, and reducing the expression of elastin and collagen proteins, leading to manifestations of photoaging like skin laxity and wrinkles. Photoaging predominantly occurs in the dermis.
UVB irradiation is administered to immortalized human keratinocytes (HaCat cells) to induce intracellular reactive oxygen species (ROS) generation. The UVB dose applied to HaCat cells is 20 mJ/cm2. Following the UVB treatment, varying concentrations of Retinyl 4-t-Butylcyclohexanol test samples are added to the cells and incubated for 24 hours. ROS levels within the cells are assessed using a ROS detection kit.
Graph Pad Prism was used for statistical plotting, and the results were presented as Mean±SD. Statistical analysis was conducted using the t-test. A significance level of p<0.05 was considered statistically significant, where *p<0.05, ** p<0.0 1 (0.005<** p<0.01), and *** p<0.001, indicating increased significance as the p-value decreases. When employing the t-test for statistical analysis, the comparison between the UVB control group and the Control group was represented as # (p<0.001 indicated as ###). […]

Data set [2] is described as follows: Stability test under light and temperature, content by HPLC-DAD. The format is physicochemical. As to the method:
To compare the stability of Retinyl-trans-4-tert-Butylcyclohexanol and retinol […] under different conditions.
A certain amount of retinol and Retinyl-trans-4-tert-Butylcyclohexanol is taken and placed under conditions of light exposure, 4° C., 25° C., 45° C., and 50° C. for 28 days. Samples are periodically collected to determine their content and examine the influence of light and temperature on their stability.
High-Performance Liquid Chromatography with Diode Array Detection (HPLC-DAD), Electronic Balance (precision of 0.01 mg), Chromatographic Column (Welch Ultimate series XB-C18 column, 250 mm*4.6 mm, 5 μm), Several volumetric flasks.
Accurately weigh approximately 0.1g of Retinyl-trans-4-tert-Butylcyclohexanol samples obtained under conditions of light exposure, 4° C., 25° C., 45° C., and 50° C. into a 100 mL brown volumetric flask. Add an appropriate amount of acetonitrile while avoiding light, ultrasonicate, dilute to the mark, shake well, and prepare two parallel samples for each condition.
Accurately weigh approximately 0.1 g of retinol samples obtained under conditions of light exposure, 4° C., 25° C., 45° C., and 50° C. into a 100 mL brown volumetric flask. Add an appropriate amount of acetonitrile while avoiding light, ultrasonicate, dilute to the mark, shake well, and prepare two parallel samples for each condition.
Operate according to the procedures for high-performance liquid chromatography (HPLC) usage and maintenance: • I) Run the blank solvent, inject 2 times, record the chromatogram for up to 30 minutes; • II) Run at least 3 injections of the control solution 1, record the chromatogram for up to 30 minutes; • III) Run the control solution 2, inject 2 times, record the chromatogram for up to 30 minutes; • IV) Inject 2 samples of the test solution, record the chromatogram for up to 30 minutes; • V) Adjust the chromatogram scale, integrate, and print. […]

On to `CC1=C(/C=C/C(C)=C/C=C/C(C)=C/C(=O)O[C@H]2CC[C@H](C(C)(C)C)CC2)C(C)(C)CCC1` [Retinyl 4-trans-t-Butylcyclohexanol, retinoic acid trans-4-tert-butylcyclohexyl ester], for which, in data set [1] (concentrations 0.02% to 4%, p<0.001), the “DPPH free radical scavenging compared to the control group” value is reported as “statistically significant increase”. Moreover, the “DPPH Free Radical Scavenging Rate (%v/v)” value was determined as 9.87 ± 3.44 in data set [1] (sample concentration 0.02 %v/v); 15.91 ± 1.25 in data set [1] (sample concentration 0.1 %v/v); 36.72 ± 1.98 in data set [1] (sample concentration 0.5 %v/v); 48.12 ± 1.07 in data set [1] (sample concentration 2 %v/v); 83.96 ± 1.22 in data set [1] (sample concentration 4 %v/v). Also, the “UVB-induced intracellular ROS levels” value in the data set with HaCat cells was “effectively reduced”. Further, the Content after storage result in data set [2] (28 days at 4° C.) and in data set [2] (28 days at room temperature) was “above 98%” in each case. Besides, the “Stability compared with retinol” value in data set [2] (light exposure, room temperature, 45° C. and 50° C., 28 days, not at 4° C.) is given as “significantly higher”.

As to `O=C1O[C@H]([C@@H](O)CO)C(O)=C1O` [ascorbic acid], the “DPPH Free Radical Scavenging Rate (%)” value in data set [1] (concentration 12.5 μg/mL) was 20.55% and 18.55% and 20.32%; in data set [1] (concentration 25 μg/mL) it was 30.26% and 31.17% and 32.98%; in data set [1] (concentration 50 μg/mL), 64.58% and 65.09% and 62.73%; in data set [1] (concentration 100 μg/mL) it was 101.32% and 95.11% and 97.07%; in data set [1] (concentration 200 μg/mL) it was 101.28% and 92.01% and 108.75%.
